Experimental data from patent US8772498B2, “Alkylamine-substituted dicyanopyridine and amino acid ester prodrugs thereof” (Bayer Intellectual Property GmbH, priority 2009, dated 2014).

Legend:
[1] = Determination of the solubility in 5% strength aqueous dextrose solution; format: physicochemical; conditions: result in words
Protocol: B-8. Determination of Solubility, Stability and Liberation Behavior a) Determination of the Solubility:
The test substance is suspended in 5% strength aqueous dextrose solution. This suspension is shaken at room temperature for 24 h. After ultracentrifugation at 224 000 g for 30 min, the supernatant is diluted with DMSO and analyzed by HPLC. A two-point calibration plot of the test compound in DMSO is used for quantification.
Agilent 1100 with DAD (G1315A), quat. pump (G1311A), autosampler CTC HTS PAL, degasser (G1322A) and column thermostat (G1316A); column: Phenomenex Gemini C18, 5 μm, 50 mm×2 mm; temperature: 40° C.; eluent A: water/phosphoric acid pH 2; eluent B: acetonitrile; flow rate: 0.7 ml/min; gradient: 0-0.5 min 85% A, 15% B; ramp: 0.5-3 min 10% A, 90% B; 3-3.5 min 10% A, 90% B; ramp: 3.5-4 min 85% A, 15% B; 4-5 min 85% A, 15% B.
Agilent 1100 with DAD (G1315A), quat. pump (G1311A), autosampler CTC HTS PAL, degasser (G1322A) and column thermostat (G1316A); column: VDSoptilab Kromasil 100 C18, 3.5 μm, 60 mm×2.1 mm; temperature: 30° C.; eluent A: water+5 ml perchloric acid/I; eluent B: acetonitrile; flow rate: 0.75 ml/min; gradient: 0-0.5 min 98% A, 2% B; ramp: 0.5-4.5 min 10% A, 90% B; 4.5-6 min 10% A, 90% B; ramp: 6.5-6.7 min 98% A, 2% B; 6.7-7.5 min 98% A, 2% B.

[2] = system: spontaneously hypertensive rats; assay: Measurement of blood pressure and heart rate on awake rats (telemetry); format: in vivo; conditions: maximum reduction in heart rate, oral administration of 3 mg/kg, awake SH rats
Protocol: B-5. Measurement of Blood Pressure and Heart Rate
Awake spontaneously hypertensive rats (SH-Ratten) carrying an internal transmitter capable of measuring permanently both blood pressure and heart rate (telemetric monitoring of hemodynamic parameters) and sitting in a cage fitted with motion sensors are orally administered test substances in various dosages. Blood pressure and heart rate and changes thereof, and also the movements and the activity of the animals are then recorded and evaluated for 24 hours.

adenosine A1 receptor = molecular target: T1, adenosine A1 receptor (Homo sapiens, UniProt P30542); assay: Indirect determination of adenosine agonism by gene expression (luciferase), A1 cells; format: cell-based; conditions: CHO cells, luciferase readout, 1 μM forskolin
T1 construct: expressed in transfected cells; host or cells: CHO (Chinese Hamster Ovary)
T1 sequence (P30542 1-326): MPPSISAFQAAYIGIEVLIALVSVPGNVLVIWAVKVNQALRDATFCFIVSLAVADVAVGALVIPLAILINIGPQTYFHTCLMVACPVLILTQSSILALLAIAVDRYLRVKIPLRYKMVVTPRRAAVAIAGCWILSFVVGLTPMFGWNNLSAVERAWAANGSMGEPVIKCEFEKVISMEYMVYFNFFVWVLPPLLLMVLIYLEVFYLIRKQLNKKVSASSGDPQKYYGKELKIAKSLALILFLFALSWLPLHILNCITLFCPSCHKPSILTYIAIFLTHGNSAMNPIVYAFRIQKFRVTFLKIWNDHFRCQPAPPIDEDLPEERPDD
Source text: (§1) B-1. Indirect Determination of the Adenosine Agonism by Way of Gene Expression
(§2) Cells of the CHO (Chinese Hamster Ovary) permanent cell line are transfected stably with the cDNA for the adenosine receptor subtypes A1, A2a and A2b. The adenosine A1 receptors are coupled to the adenylate cyclase by way of G, proteins, while the adenosine A2a and A2b receptors are coupled by way of Gs proteins. In correspondence with this, the formation of cAMP in the cell is inhibited or stimulated, respectively. After that, expression of the luciferase is modulated by way of a cAMP-dependent promoter. The luciferase test is optimized, with the aim of high sensitivity and reproducibility, low variance and good suitability for implementation on a robot system, by varying several test parameters, such as cell density, duration of the growth phase and the test incubation, forskolin concentration and medium composition. The following test protocol is used for pharmacologically characterizing cells and for the robot-assisted substance screening:
(§3) The stock cultures are grown, at 37° C. and under 5% CO2, in DMEM/F12 medium containing 10% FCS (fetal calf serum) and in each case split 1:10 after 2-3 days. The test cultures are seeded in 384-well plates with 2000 cells per well and grown at 37° C. for approx. 48 hours. The medium is then replaced with a physiological sodium chloride solution (130 mM sodium chloride, 5 mM potassium chloride, 2 mM calcium chloride, 20 mM HEPES, 1 mM magnesium chloride hexahydrate, 5 mM sodium bicarbonate, pH 7.4). The substances to be tested, which are dissolved in DMSO, are pipetted into the test cultures (maximum final concentration of DMSO in the test mixture: 0.5%) in a dilution series of from 5×10^−11 M to 3×10^−6 M (final concentration). 10 minutes later, forskolin is added to the A1 cells and all the cultures are subsequently incubated at 37° C. for four hours. After that, 35 μl of a solution which is composed of 50% lysis reagent (30 mM disodium hydrogenphosphate, 10% glycerol, 3% TritonX100, 25 mM TrisHCl, 2 mM dithiotreitol (DTT), pH 7.8) and 50% luciferase substrate solution (2.5 mM ATP, 0.5 mM luciferin, 0.1 mM coenzyme A, 10 mM tricine, 1.35 mM magnesium sulfate, 15 mM DTT, pH 7.8) are added to the test cultures, which are shaken for approx. 1 minute and the luciferase activity is measured using a camera system. The ECK values are determined, i.e., the concentrations at which 50% of the luciferase answer is inhibited in the case of the A1 cell, and, respectively, 50% of the maximum stimulation with the corresponding substance is achieved in the case of the A2b and A2a cells.
(§4) Table 1 below lists the ECK values of representative working examples for the receptor stimulation on adenosine A1, A2a and A2b receptor subtypes: […]

adenosine A2a receptor = molecular target: T2, adenosine A2a receptor (Homo sapiens, UniProt P29274); assay: Indirect determination of adenosine agonism by gene expression (luciferase), A2a cells; format: cell-based; conditions: CHO cells, luciferase readout
T2 construct: expressed in transfected cells; host or cells: CHO (Chinese Hamster Ovary)
Source text: as §1, §2, §3, §4

mice (strain: CD1) = assay: Locomotor action in the treadmill experiment; format: in vivo; conditions: oral
Source text: B-7. Test of Adenosine A1 Receptor Agonists on Locomotor Action in the Treadmill Experiment To determine the action of adenosine A1 receptor agonists on locomotor function, the running behavior of mice (strain: CD1) in treadmills (M. Weber et al., Psychopharmacology 2008, in print) is examined. To get the mice accustomed to voluntary use of the treadmill, 2-3 weeks prior to the start of the experiment the animals are isolated in cages with a treadmill and trained. 2 weeks prior to the start of the experiment, the movements of the mice in the treadmill are recorded by a photo cell using a computer, and various running parameters such as, for example, the distance run in a day, the individual distances covered, and also their distribution over the day are determined. According to their natural running behavior, the animals are randomized into groups (8-12 animals) (control group and 1—a plurality of substance groups). After the initial 2-week phase, the animals are treated orally with the substances to be tested. Here, single doses or else increasing dosages (for example 0.3-1-3-10-30 mg/kg) are administered. The substances are tested in two independent experiments. Between 2 experiments, there are at least 3 days where the animals are not administered any substances. The running behavior of the animals is observed and recorded for 24 hours after administration. Evaluation of the running intervals and the total distance covered takes place over a period of several hours during the main activity period of the mice. Effects are stated in percent of the control.

adenosine A2b receptor = molecular target: T3, adenosine A2b receptor (Homo sapiens, UniProt P29275); assay: Indirect determination of adenosine agonism by gene expression (luciferase), A2b cells; format: cell-based; conditions: CHO cells, luciferase readout
T3 construct: expressed in transfected cells; host or cells: CHO (Chinese Hamster Ovary)
T3 sequence (P29275 1-332): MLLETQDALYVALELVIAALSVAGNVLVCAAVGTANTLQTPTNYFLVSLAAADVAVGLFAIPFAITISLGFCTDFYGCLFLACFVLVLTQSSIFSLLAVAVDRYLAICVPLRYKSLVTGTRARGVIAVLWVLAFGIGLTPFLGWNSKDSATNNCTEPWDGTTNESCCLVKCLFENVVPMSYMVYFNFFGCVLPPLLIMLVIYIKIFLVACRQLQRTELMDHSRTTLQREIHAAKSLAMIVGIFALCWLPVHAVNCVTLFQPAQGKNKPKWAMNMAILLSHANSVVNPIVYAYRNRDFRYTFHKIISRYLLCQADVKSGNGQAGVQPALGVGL
Source text: as §1, §2, §3, §4

T2 sequence (P29274 whole entry): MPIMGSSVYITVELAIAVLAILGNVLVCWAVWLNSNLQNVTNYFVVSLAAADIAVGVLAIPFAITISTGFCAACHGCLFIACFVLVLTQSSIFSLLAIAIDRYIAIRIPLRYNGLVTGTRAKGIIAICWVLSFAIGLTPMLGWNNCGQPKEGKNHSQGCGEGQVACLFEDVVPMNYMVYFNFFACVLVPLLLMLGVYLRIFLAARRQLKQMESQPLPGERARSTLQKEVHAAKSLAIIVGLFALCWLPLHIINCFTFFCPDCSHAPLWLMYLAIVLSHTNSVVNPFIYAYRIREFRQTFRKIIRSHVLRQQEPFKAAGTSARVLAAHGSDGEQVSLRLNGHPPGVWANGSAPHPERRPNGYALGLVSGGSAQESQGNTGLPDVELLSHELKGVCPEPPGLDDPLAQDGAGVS

Row | Solubility of the active substance [1] | EC50 (adenosine A1 receptor) [nM] | EC50 (adenosine A2a receptor) [nM] | Reduction of the total distance run by 1 mg/kg (mice (strain: CD1)) [%] | EC50 (adenosine A2b receptor) [nM] | SMILES | Heart rate reduction [2] [%]
1 | below the detection limit | 0.1 | 673 | 0 | 80 | N#Cc1c(SCc2csc(-c3ccc(Cl)cc3)n2)nc(N2CCCC2)c(C#N)c1-c1ccc(OCCO)cc1 [Example 1] | −20
2 | below the detection limit |  |  |  |  | CNc1nc(SCc2csc(-c3ccc(Cl)cc3)n2)c(C#N)c(-c2ccc(OCCO)cc2)c1C#N [Example 2, 2-({(2-(4-Chlorophenyl)-1,3-thiazol-4-yl)methyl}sulfanyl)-4-(4-(2-hydroxyethoxy)phenyl)-6-(methylamino)pyridine-3,5-dicarbonitrile] | −45
3 |  | 0.3 | 282 |  | 138 | CCNc1nc(SCc2csc(-c3ccc(Cl)cc3)n2)c(C#N)c(-c2ccc(OCCO)cc2)c1C#N [Example 3, 2-({(2-(4-Chlorophenyl)-1,3-thiazol-4-yl)methyl}sulfanyl)-6-(ethylamino)-4-(4-(2-hydroxy-ethoxy)phenyl)pyridine-3,5-dicarbonitrile] | 
4 |  | 0.5 | 315 |  | 150 | CCN(C)c1nc(SCc2csc(-c3ccc(Cl)cc3)n2)c(C#N)c(-c2ccc(OCCO)cc2)c1C#N [Example 5, 2-({(2-(4-Chlorophenyl)-1,3-thiazol-4-yl)methyl}sulfanyl)-6-(ethyl(methyl)amino)-4-(4-(2-hydroxyethoxy)phenyl)pyridine-3,5-dicarbonitrile] | 

More lines, now with the values behind:

Row | SMILES | Solubility of the active substance [1] | EC50 (adenosine A1 receptor) [nM] | EC50 (adenosine A2a receptor) [nM] | Reduction of the total distance run by 1 mg/kg (mice (strain: CD1)) [%] | EC50 (adenosine A2b receptor) [nM] | Heart rate reduction [2] [%]
5 | N#Cc1c(NC2CC2)nc(SCc2csc(-c3ccc(Cl)cc3)n2)c(C#N)c1-c1ccc(OCCO)cc1 [Example 9] |  | 0.7 | 281 |  | 231 | 
6 | N#Cc1c(SCc2csc(-c3ccc(Cl)cc3)n2)nc(N2CCCCC2)c(C#N)c1-c1ccc(OCCO)cc1 [Example 13] |  |  |  | 0 |  | 
7 | COCCN(C)c1nc(SCc2csc(-c3ccc(Cl)cc3)n2)c(C#N)c(-c2ccc(OCCO)cc2)c1C#N [Example 21, 2-({(2-(4-chlorophenyl)-1,3-thiazol-4-yl)methyl}sulfanyl)-4-(4-(2-hydroxyethoxy)phenyl)-6-((2-methoxyethyl)(methyl)amino)pyridine-3,5-dicarbonitrile] |  | 0.9 | 743 | 7.5 |  | 
8 | COC1CCN(c2nc(SCc3csc(-c4ccc(Cl)cc4)n3)c(C#N)c(-c3ccc(OCCO)cc3)c2C#N)CC1 [Example 24, 2-({(2-(4-chlorophenyl)-1,3-thiazol-4-yl)methyl}sulfanyl)-4-(4-(2-hydroxyethoxy)phenyl)-6-(4-methoxypiperidin-1-yl)pyridine-3,5-dicarbonitrile] |  | 0.6 | 287 |  | 675 | 
9 | N#Cc1c(SCc2csc(-c3ccc(Cl)cc3)n2)nc(N2CCC(F)(F)C2)c(C#N)c1-c1ccc(OCCO)cc1 [Example 26, 2-({(2-(4-Chlorophenyl)-1,3-thiazol-4-yl)methyl}sulfanyl)-6-(3,3-difluoropyrrolidin-1-yl)-4-(4-(2-hydroxyethoxy)phenyl)pyridine-3,5-dicarbonitrile] |  | 0.5 |  |  | 1000 | 
10 | N#Cc1c(NCCF)nc(SCc2csc(-c3ccc(Cl)cc3)n2)c(C#N)c1-c1ccc(OCCO)cc1 [Example 33, 2-({(2-(4-Chlorophenyl)-1,3-thiazol-4-yl)methyl}sulfanyl)-6-((2-fluoroethyl)amino)-4-(4-(2-hydroxyethoxy)phenyl)pyridine-3,5-dicarbonitrile] |  | 0.05 | 27 | 24 | 900 | 
